Test results: patent US3934024A, “Method of producing analgesia and compositions useful therein” (Sharps Associates, priority 1975, dated 1976)

Columns and labels:
[1] = tested on: mice; experiment: Acetic acid writhing test in mice (oral); assay type: in vivo; details: for Percent inhibition: acetic acid writhing, writhes counted for 20 minutes beginning 5 minutes after acid injection
Experimental: The analgesic activity of the compound was evaluated in an acetic acid writhing test. The acetic acid writhing test used was modified from that described by Whittle, Brit J. Pharmacol., 22, 296 (1964). The number of writhes were counted for a 20 minute period beginning 5 minutes after the injection of the acid. Analgetic potency was calculated from the difference between the test groups and their controls.
Acetic acid writhing test in mice (oral)

[2] = tested on: rat; experiment: rat tail flick test for analgesic activity; assay type: in vivo; details: oral, 95% C.L. = 0.9 - 4.8
From the text: In the rat tail flick test for analgesic activity [D'Amour and Smith, J. Pharmacol. Exper. Therap.

CCCCCC(C)C(C)c1cc(O)c2c(c1)OC(C)(C)C1=C2CCCS1 (stereo not drawn) [Compound I, 1,2-dihydro-5,5-dimethyl-10-hydroxy-8-(3-methyl-2-octyl)-3H,5H-thiopyrano[2,3-c][1]benzopyran]
ED50 ([1]; Mus musculus, oral, 95% C.L. = 9.2 - 12.4): 10.8 mg/kg | Percent inhibition ([1]; 5 mg/kg p.o.): 20.7% | Percent inhibition ([1]; 10 mg/kg p.o.): 48.9% | Percent inhibition ([1]; 20 mg/kg p.o.): 74.0% | Percent inhibition ([1]; 40 mg/kg p.o.): 95.6% | ED50 [2]: 2.7 mg/kg
